Laboratory results published in patent publication US5866775A, “Glyphosate-tolerant 5-enolpyruvyl-3-phosphoshikimate synthases” (Monsanto Company, priority 1990, dated 1999).

Key:
[1] = system: transgenic canola plants containing pMON10074 (Arabidopsis EPSPS gly-ala(101), ala-thr(192)); assay: Glyphosate spray of canola, pMON10074 plants; format: in vivo; conditions: 0.56 kg/ha spray; 15 transgenic plants
Text: The resulting plasmid, pMON8324, was partially sequenced to confirm the mutagenesis. […] The pMON10074 plasmid contains the following DNA segments (FIG. 5, clockwise). First, the 0.93 kb fragment isolated from transposon Tn7 which encodes bacterial spectinomycin/streptomycin resistance (Spc/Str), and is a determinant for selection in E. coli and Agrobacterium tumefaciens (Fling et al. 1985). This is joined to the chimeric kanamycin resistance gene engineered for plant expression to allow selection of the transformed tissue. […]
A total of 15 transgenic canola plants containing the pMON10074 construct, and 2 non-transformed controls were sprayed with glyphosate at a commercial rate of 0.56 kg/ha. The effect of glyphosate on both the vegetative and reproductive performance of the sprayed plants was scored at 7, 14 and 28 days after spray. […]

[2] = system: non-transformed canola plants; assay: Glyphosate spray of canola, non-transformed controls; format: in vivo; conditions: 0.56 kg/ha spray
Text: A total of 15 transgenic canola plants containing the pMON10074 construct, and 2 non-transformed controls were sprayed with glyphosate at a commercial rate of 0.56 kg/ha. The effect of glyphosate on both the vegetative and reproductive performance of the sprayed plants was scored at 7, 14 and 28 days after spray. The effect of glyphosate was translated to a numerical scale of 0-10, where 0 represents total kill and 10 represents the normal, unsprayed plant. The non-transformed controls had vegetative scores of 2 after 14 days and reproductive scores of 0 after 28 days.

[3] = target: T1, EPSPS in crude extracts of tobacco plants transformed with pMON10079 (Petunia hybrida, UniProt P11043, A264T/G173A); assay: EPSPS assay of crude plant extracts in the presence of glyphosate; format: biochemical; conditions: 1.0 mM glyphosate; eleven transformed plants
T1 construct: an alanine to threonine substitution at position 192 of the mature EPSPS enzyme has also been introduced into other plant species such as tobacco; expressed in transfected cells; host or cells: transgenic tobacco plants (pMON10079), crude plant extracts
T1 sequence (P11043 73-516 G173A/A264T): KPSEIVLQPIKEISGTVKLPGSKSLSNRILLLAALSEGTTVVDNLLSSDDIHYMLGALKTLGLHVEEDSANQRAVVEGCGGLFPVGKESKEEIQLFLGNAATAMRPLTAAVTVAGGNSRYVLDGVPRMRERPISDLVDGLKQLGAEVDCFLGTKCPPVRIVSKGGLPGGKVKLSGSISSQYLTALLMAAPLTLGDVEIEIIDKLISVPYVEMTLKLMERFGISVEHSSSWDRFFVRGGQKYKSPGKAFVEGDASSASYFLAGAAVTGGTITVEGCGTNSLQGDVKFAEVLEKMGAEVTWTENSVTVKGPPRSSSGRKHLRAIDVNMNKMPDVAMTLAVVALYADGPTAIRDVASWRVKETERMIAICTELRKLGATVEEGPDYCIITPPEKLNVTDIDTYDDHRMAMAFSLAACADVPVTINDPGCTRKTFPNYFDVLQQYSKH
Text: Thus, the petunia EPSPS variant with the glycine to alanine substitution at position 101 and the alanine to threonine substitution at position 192 does confer glyphosate tolerance to transformed plants.

[4] = system: petunia leaf disks transformed with control vector pMON505; assay: Leaf disk callus growth on glyphosate medium, control disks; format: cell-based; conditions: within 10 days
Method: Leaf disks with diameters of 6 mm (1/4 inch) were taken from surface-sterilized petunia leaves. They were cultured on MS104 agar medium for 2 days to promote partial cell wall formation at the wound surfaces. They were then submerged in a culture of A. tumefaciens cells containing both pMON546 and GV3111-SE which had grown overnight in Luria broth at 28° C., and shaken gently. The leaf disks were removed from the bacterial suspension, blotted dry, and incubated upside down on filter paper placed over "nurse" cultures of tobacco cells, as described by Horsch (1980). After 2 or 3 days, the disks were transferred to petri dishes containing MS media with 500 μg/ml carbenicillin and 0. 0.1, 0.25, or 0.5 mM glyphosate (sodium salt), with no nurse cultures.
Control tissue was created using A. tumefaciens cells containing the helper plasmid pGV3111-SE and a different plant transformation vector, pMON505, which contained a T-DNA region with a NOS/NPTII/NOS kanamycin resistance gene and a NOS selectable marker gene identical to pMON546, but without the CaMV35S/EPSP synthase gene.

[5] = system: tobacco plants transformed with wild-type EPSP synthase; assay: Relative effect of glyphosate spray, WT plants; format: in vivo, Nicotiana tobacam CV H425
Text: A culture of A. tumefaciens cells containing pMON567/pGV3111-SE was co-cultured with leaf disks taken from tobacco plants (Nicotiana tobacam CV H425) as described by Horsch (1985). The Agrobacterium cells inserted the variant EPSP synthase gene into the chromosomes of the plant cells. Plant cells resistant to kanamycin were selected and regenerated into differentiated plants by the procedure of Horsch (1985).
Progeny of these plants were propagated and grown to a rosette diameter of about 10 cm corresponding to a plant age of about four weeks. The plants were sprayed with glyphosate at levels corresponding to 0.4, 2.0 and 3.6 pounds acid equivalent/acre. The effect of glyphosate on the transformed plants were scored at 7, 14 and 28 days. The effect was translated to a numerical scale of 0-10 in which 0 represents total kill and 10 is the normal, unsprayed plant. […] The values represent the best transformant for both wild-type EPSP synthase and glypho sate-tolerant EPSP synthase genes.

Structure (SMILES): O=C(O)CNCP(=O)(O)O [glyphosate, N-phosphonomethylglycine]
- reproductive score (scale 0-10, 0 total kill, 10 normal unsprayed plant) [1]: 7 out of 15 had reproductive scores greater than 8 with 3 of them scoring 10
- vegetative score (scale 0-10, 0 total kill, 10 normal unsprayed plant) [1]: 6 out of 15 plants having vegetative scores greater than 8, with 1 scoring a 10
- vegetative score (scale 0-10, 0 total kill, 10 normal unsprayed plant) ([2]; after 14 days): 2
- reproductive score (scale 0-10, 0 total kill, 10 normal unsprayed plant) ([2]; after 28 days): 0
- glyphosate resistance of plant EPSPS [3]: all eleven exhibited glyphosate resistance
- callus growth ([4]; 0.25 mM glyphosate (sodium salt)): very little growth of callus from control disks
- callus growth ([4]; 0.5 mM glyphosate (sodium salt)): no callus growth from the control disks
- Relative Effect of Glyphosate (0 total kill, 10 no effect) ([5]; 0.4 pounds/acre (0.448 kg/hectare), day 7, best transformant): 6.0
- Relative Effect of Glyphosate (0 total kill, 10 no effect) ([5]; 0.4 pounds/acre (0.448 kg/hectare), day 14, best transformant): 7.0
- Relative Effect of Glyphosate (0 total kill, 10 no effect) ([5]; 0.4 pounds/acre (0.448 kg/hectare), day 28, best transformant): 9.0
- Relative Effect of Glyphosate (0 total kill, 10 no effect) ([5]; 2.0 pounds/acre (2.242 kg/hectare), day 7, best transformant): 5.0
- Relative Effect of Glyphosate (0 total kill, 10 no effect) ([5]; 2.0 pounds/acre (2.242 kg/hectare), day 14, best transformant): 1.8
- Relative Effect of Glyphosate (0 total kill, 10 no effect) ([5]; 2.0 pounds/acre (2.242 kg/hectare), day 28, best transformant): 0.8
- Relative Effect of Glyphosate (0 total kill, 10 no effect) ([5]; 3.6 pounds/acre (4.035 kg/hectare), day 7, best transformant): 5.0
- Relative Effect of Glyphosate (0 total kill, 10 no effect) ([5]; 3.6 pounds/acre (4.035 kg/hectare), day 14, best transformant): 1.7
- Relative Effect of Glyphosate (0 total kill, 10 no effect) ([5]; 3.6 pounds/acre (4.035 kg/hectare), day 28, best transformant): 0.8
